“And” between values parts separate entries of the source, which are not always exact repeats. Identical values can stand only once. Toxic doses and inconclusive results are not listed. Rule for the calls: active = survival T/C of 150% or more; inactive = T/C below 125% in these data.
System: CD2F1 mice, L1210 leukemia ip, survival T/C
Experiment: NCI In Vivo Anticancer Drug Screen. Data for tumor model L1210 Leukemia (intraperitoneal) in CD2F1 (CDF1) mice
Conditions: higher = longer survival
In short: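 Tumor-bearing mice (transplanted tumor) were split into treated and vehicle control groups, and the measured endpoint of each treated group was divided by that of its vehicle controls.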

[1] = endpoint: mean survival time, dose: 100.0 mg/kg/injection, schedule: Q01DX001 (ip), vehicle: saline
[2] = endpoint: mean survival time, dose: 200.0 mg/kg/injection, schedule: Q01DX001 (ip), vehicle: saline
[3] = endpoint: mean survival time, dose: 400.0 mg/kg/injection, schedule: Q01DX001 (ip), vehicle: saline
[4] = endpoint: mean survival time, dose: 100.0 mg/kg/injection, schedule: Q01DX009 (ip), vehicle: saline with Tween-80
[5] = endpoint: mean survival time, dose: 100.0 mg/kg/injection, schedule: Q04DX003 (ip), vehicle: saline with Tween-80
[6] = endpoint: mean survival time, dose: 200.0 mg/kg/injection, schedule: Q01DX009 (ip), vehicle: saline with Tween-80
[7] = endpoint: mean survival time, dose: 200.0 mg/kg/injection, schedule: Q04DX003 (ip), vehicle: saline with Tween-80
[8] = endpoint: mean survival time, dose: 400.0 mg/kg/injection, schedule: Q01DX009 (ip), vehicle: saline with Tween-80
[9] = endpoint: mean survival time, dose: 400.0 mg/kg/injection, schedule: Q04DX003 (ip), vehicle: saline with Tween-80
[10] = endpoint: mean survival time, dose: 25.0 mg/kg/injection, schedule: Q01DX001 (ip), vehicle: saline with Tween-80
[11] = endpoint: mean survival time, dose: 50.0 mg/kg/injection, schedule: Q01DX001 (ip), vehicle: saline with Tween-80
[12] = endpoint: mean survival time, dose: 100.0 mg/kg/injection, schedule: Q01DX001 (ip), vehicle: saline with Tween-80
[13] = endpoint: mean survival time, dose: 100.0 mg/kg/injection, schedule: Q04DX003 (ip), vehicle: saline
[14] = endpoint: mean survival time, dose: 200.0 mg/kg/injection, schedule: Q04DX003 (ip), vehicle: saline

Measured: T/C

CCC(=O)C(=O)c1ccccc1
inactive: [1] 101 % of control | [2] 98 % of control | [3] 101 % of control

O=[N+]([O-])c1ccc(C(O)(c2ccc([N+](=O)[O-])cc2)c2ccc([N+](=O)[O-])cc2)cc1
inactive: [4] 96 % of control | [5] 98 % of control | [6] 95 % of control | [7] 97 % of control | [8] 96 % of control | [9] 97 % of control

Nc1cc(Sc2ccc(Cl)cc2)nc(N)n1
inactive: [10] 102 % of control | [11] 102 % of control | [12] 98 % of control

Cn1c(=O)c2c(ncn2CCNCC(O)c2cc(C(C)(C)C)c(O)c(C(C)(C)C)c2)n(C)c1=O (stereo not given)
inactive: endpoint: mean survival time, dose: 12.5 mg/kg/injection, schedule: Q01DX005 (ip), vehicle: distilled water + Tween-80 100 % of control | endpoint: mean survival time, dose: 25.0 mg/kg/injection, schedule: Q01DX005 (ip), vehicle: distilled water + Tween-80 100 % of control | endpoint: mean survival time, dose: 50.0 mg/kg/injection, schedule: Q01DX005 (ip), vehicle: distilled water + Tween-80 106 % of control | endpoint: mean survival time, dose: 100.0 mg/kg/injection, schedule: Q01DX005 (ip), vehicle: distilled water + Tween-80 109 % of control | endpoint: mean survival time, dose: 200.0 mg/kg/injection, schedule: Q01DX005 (ip), vehicle: distilled water + Tween-80 101 % of control

COc1c(CBr)c(CBr)c(OC)c2ccccc12
inactive: [5] 101 % of control | [7] 100 % of control | [9] 101 % of control

FC(F)(F)c1nc2nccnc2[nH]1
inactive: endpoint: mean survival time, dose: 50.0 mg/kg/injection, schedule: Q01DX009 (ip), vehicle: saline 95 % of control | endpoint: mean survival time, dose: 100.0 mg/kg/injection, schedule: Q01DX009 (ip), vehicle: saline 91 % of control | endpoint: mean survival time, dose: 200.0 mg/kg/injection, schedule: Q01DX009 (ip), vehicle: saline 93 % of control

O=C(NNC1CCCCC1)c1ccccc1
inactive: endpoint: mean survival time, dose: 100.0 mg/kg/injection, schedule: Q01DX009 (ip), vehicle: acetone 103 % of control

O=C1CCc2cccc(O)c21
inactive: [4] 98 % of control | [5] 101 % of control | [6] 93 % of control | [7] 97 % of control | [8] 95 % of control | [9] 108 % of control

CCC(=O)NC1=C(Cl)C(=O)c2ccccc2C1=O
inactive: endpoint: mean survival time, dose: 5.0 mg/kg/injection, schedule: Q01DX001 (ip), vehicle: saline 91 % of control | endpoint: mean survival time, dose: 10.0 mg/kg/injection, schedule: Q01DX001 (ip), vehicle: saline 101 % of control | endpoint: mean survival time, dose: 20.0 mg/kg/injection, schedule: Q01DX001 (ip), vehicle: saline 97 % of control

C[C@@H]1C[C@@H]([C@H](O)CC2CC(=O)NC(=O)C2)C(=O)[C@@H](C)C1
inactive: endpoint: mean survival time, dose: 5.0 mg/kg/injection, schedule: Q01DX009 (ip), vehicle: saline 104 % of control and 109 % of control | endpoint: mean survival time, dose: 10.0 mg/kg/injection, schedule: Q01DX007 (ip), vehicle: saline 107 % of control | endpoint: mean survival time, dose: 10.0 mg/kg/injection, schedule: Q03DX003 (ip), vehicle: saline 96 % of control | endpoint: mean survival time, dose: 10.0 mg/kg/injection, schedule: Q04DX003 (ip), vehicle: saline 100 % of control | endpoint: mean survival time, dose: 20.0 mg/kg/injection, schedule: Q01DX007 (ip), vehicle: saline 107 % of control | endpoint: mean survival time, dose: 20.0 mg/kg/injection, schedule: Q03DX003 (ip), vehicle: saline 100 % of control | endpoint: mean survival time, dose: 20.0 mg/kg/injection, schedule: Q04DX003 (ip), vehicle: saline 100 % of control | endpoint: mean survival time, dose: 40.0 mg/kg/injection, schedule: Q01DX007 (ip), vehicle: saline 115 % of control | endpoint: mean survival time, dose: 40.0 mg/kg/injection, schedule: Q03DX003 (ip), vehicle: saline 104 % of control | endpoint: mean survival time, dose: 40.0 mg/kg/injection, schedule: Q04DX003 (ip), vehicle: saline 106 % of control | endpoint: mean survival time, dose: 80.0 mg/kg/injection, schedule: Q01DX009 (ip), vehicle: saline 120 % of control | endpoint: mean survival time, dose: 160.0 mg/kg/injection, schedule: Q01DX009 (ip), vehicle: saline 89 % of control | endpoint: median survival time, dose: 12.5 mg/kg/injection, schedule: Q01DX009 (ip), vehicle: saline 109 % of control | endpoint: median survival time, dose: 25.0 mg/kg/injection, schedule: Q01DX009 (ip), vehicle: saline 114 % of control and 119 % of control | endpoint: median survival time, dose: 200.0 mg/kg/injection, schedule: Q01DX009 (ip), vehicle: saline 101 % of control

O=CC(NC(=O)OCc1ccccc1)C(O)C(O)C(O)CO (stereo not given)
inactive: [10] 105 % of control | [11] 102 % of control | [12] 102 % of control

C/C=C\c1ccc(OCCOC(=O)Nc2ccc(Cl)cc2OC)c(OC)c1
inactive: endpoint: mean survival time, dose: 50.0 mg/kg/injection, schedule: Q01DX009 (ip), vehicle: saline with Tween-80 89 % of control | [4] 89 % of control | [6] 93 % of control

CC1=NN(c2ccccc2)C(=O)C1
inactive: [4] 98 % of control | [5] 94 % of control | [6] 102 % of control | [7] 92 % of control | [8] 96 % of control | [9] 86 % of control

CC(C)(CC(=O)O)c1ccccc1
inactive: endpoint: mean survival time, dose: 100.0 mg/kg/injection, schedule: Q04DX003 (ip), vehicle: saline sonified 97 % of control | endpoint: mean survival time, dose: 200.0 mg/kg/injection, schedule: Q04DX003 (ip), vehicle: saline sonified 101 % of control | endpoint: mean survival time, dose: 400.0 mg/kg/injection, schedule: Q04DX003 (ip), vehicle: saline sonified 97 % of control

CC1(C)CC2(C)OC2C2(C1)N=NC(=Nc1ccccc1)O2 (stereo not given)
inactive: endpoint: median survival time, dose: 25.0 mg/kg/injection, schedule: Q01DX009 (ip), vehicle: saline with Tween-80 110 % of control | endpoint: median survival time, dose: 50.0 mg/kg/injection, schedule: Q01DX009 (ip), vehicle: saline with Tween-80 102 % of control

O=C(NC(O)C(Cl)(Cl)Cl)c1ccccc1 (stereo not given)
inactive: [4] 94 % of control | [5] 107 % of control | [6] 89 % of control | [7] 107 % of control | [8] 91 % of control | [9] 107 % of control

COCCC1(CN2c3ccccc3Sc3ccc(Cl)cc32)CCN(C)C1 (stereo not given)
inactive: [13] 102 % of control | [14] 105 % of control

CC(C)NC(=O)C1C2CCC(C2)C1C(=O)NC(C)C (stereo not given)
inactive: [13] 98 % of control | [14] 111 % of control | endpoint: mean survival time, dose: 400.0 mg/kg/injection, schedule: Q04DX003 (ip), vehicle: saline 98 % of control

NC(=O)C1(Cl)CC2C=CC1C2 (stereo not given)
inactive: [13] 94 % of control

O=C1C=C(O)c2cc(Br)ccc2C1=O
inactive: [1] 102 % of control | [2] 98 % of control | [3] 98 % of control

Source: PubChem BioAssay AID256 (DTP/NCI, 2004)
